Laboratory results from patent publication US9096518B2, “Substituted hydroxamic acids and uses thereof” (Millennium Pharmaceuticals, Inc., priority 2009, dated 2015).

target: T1, purified human HDAC6 (Homo sapiens, UniProt Q9UBN7); assay: HDAC6 Enzyme Assay; format: biochemical
T1 construct: purchased BPS Bioscience 5006
T1 sequence (Q9UBN7 1-1215): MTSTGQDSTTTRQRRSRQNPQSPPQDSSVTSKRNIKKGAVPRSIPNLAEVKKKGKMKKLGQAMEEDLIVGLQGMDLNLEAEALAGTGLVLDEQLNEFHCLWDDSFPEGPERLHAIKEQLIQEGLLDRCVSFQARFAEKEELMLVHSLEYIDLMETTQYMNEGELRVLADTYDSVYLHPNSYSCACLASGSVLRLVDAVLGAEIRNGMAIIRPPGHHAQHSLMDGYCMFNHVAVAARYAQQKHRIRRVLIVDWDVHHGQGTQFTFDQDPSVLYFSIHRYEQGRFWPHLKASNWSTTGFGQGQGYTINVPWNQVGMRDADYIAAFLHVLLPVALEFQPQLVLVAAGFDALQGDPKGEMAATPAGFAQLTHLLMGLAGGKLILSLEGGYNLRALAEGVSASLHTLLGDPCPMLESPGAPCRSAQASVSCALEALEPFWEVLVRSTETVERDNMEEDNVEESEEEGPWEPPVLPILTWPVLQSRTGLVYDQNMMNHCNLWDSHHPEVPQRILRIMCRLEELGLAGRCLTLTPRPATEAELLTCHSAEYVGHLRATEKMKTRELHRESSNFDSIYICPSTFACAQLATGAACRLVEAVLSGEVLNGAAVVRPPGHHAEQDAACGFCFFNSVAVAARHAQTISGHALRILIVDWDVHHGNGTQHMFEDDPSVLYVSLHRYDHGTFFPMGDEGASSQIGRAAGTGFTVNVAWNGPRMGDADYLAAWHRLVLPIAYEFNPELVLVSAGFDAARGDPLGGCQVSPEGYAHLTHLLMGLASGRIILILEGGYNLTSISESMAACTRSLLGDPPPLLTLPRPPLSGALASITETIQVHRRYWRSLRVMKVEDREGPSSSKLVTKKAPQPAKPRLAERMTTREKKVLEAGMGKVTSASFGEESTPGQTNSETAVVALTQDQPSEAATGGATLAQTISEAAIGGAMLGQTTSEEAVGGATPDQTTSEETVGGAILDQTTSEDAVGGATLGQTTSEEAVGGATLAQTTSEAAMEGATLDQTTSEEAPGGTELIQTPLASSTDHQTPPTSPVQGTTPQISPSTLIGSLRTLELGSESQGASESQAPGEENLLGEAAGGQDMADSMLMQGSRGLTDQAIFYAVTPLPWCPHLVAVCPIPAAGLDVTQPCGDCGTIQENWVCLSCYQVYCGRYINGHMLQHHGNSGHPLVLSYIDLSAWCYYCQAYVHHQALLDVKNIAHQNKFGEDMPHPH
Method: To measure the inhibition of HDAC6 activity, purified human HDAC6 (BPS Bioscience; Cat. No. 5006) is incubated with substrate Ac-Arg-Gly-Lys(Ac)-AMC peptide (Bachem Biosciences; Cat. No. I-1925) for 1 hour at 30° C. in the presence of test compounds or vehicle DMSO control. The reaction is stopped with the HDAC inhibitor trichostatin A (Sigma; Cat. No. T8552) and the amount of Arg-Gly-Lys-AMC generated is quantitated by digestion with trypsin (Sigma; Cat. No. T1426) and subsequent measurement of the amount of AMC released using a fluorescent plate reader (Pherastar; BMG Technologies) set at Ex 340 nm and Em 460 nm. Concentration response curves are generated by calculating the fluorescence increase in test compound-treated samples relative to DMSO-treated controls, and enzyme inhibition (IC50) values are determined from those curves.

| IC50 [nM] | SMILES |
| --- | --- |
| 50 to 100 | COc1cccc(CC(=O)N2CCc3cc(C(=O)NO)ccc3C2)c1 [Compound 34, N-hydroxy-2-[(3-methoxyphenyl)acetyl]-1,2,3,4-tetrahydroisoquinoline-6-carboxamide] |
| 100 to 500 | CC(C)c1ccc(CC(=O)N2CCc3cc(C(=O)NO)ccc3C2)cc1 [Compound 35, N-hydroxy-2-[(4-isopropylphenyl)acetyl]-1,2,3,4-tetrahydroisoquinoline-6-carboxamide] |
| 100 to 500 | CC(=O)N1CCC(C(=O)N2CCc3cc(C(=O)NO)ccc3C2)CC1 [Compound 36, 2-[(1-acetylpiperidin-4-yl)carbonyl]-N-hydroxy-1,2,3,4-tetrahydroisoquinoline-6-carboxamide] |
| 100 to 500 | Cc1cc(C(F)(F)F)nn1CC(=O)N1CCc2cc(C(=O)NO)ccc2C1 [Compound 37, N-hydroxy-2-{[5-methyl-3-(trifluoromethyl)-1H-pyrazol-1-yl]acetyl}-1,2,3,4-tetrahydroisoquinoline-6-carboxamide] |
| 50 to 100 | CCCCS(=O)(=O)N1CCc2cc(C(=O)NO)ccc2C1 [Compound 38, 2-(butylsulfonyl)-N-hydroxy-1,2,3,4-tetrahydroisoquinoline-6-carboxamide] |
| 50 to 100 | O=C(NO)c1ccc2c(c1)CCN(S(=O)(=O)Cc1ccccc1)C2 [Compound 39, 2-(benzylsulfonyl)-N-hydroxy-1,2,3,4-tetrahydroisoquinoline-6-carboxamide] |
| 100 to 500 | CCCS(=O)(=O)N1CCc2cc(C(=O)NO)ccc2C1 [Compound 40, N-hydroxy-2-(propylsulfonyl)-1,2,3,4-tetrahydroisoquinoline-6-carboxamide] |
| 100 to 500 | CC(C)c1ccc(S(=O)(=O)N2CCc3cc(C(=O)NO)ccc3C2)cc1 [Compound 42, N-hydroxy-2-[(4-isopropylphenyl)sulfonyl]-1,2,3,4-tetrahydroisoquinoline-6-carboxamide] |
| 50 to 100 | COc1ccc(-c2ccc(S(=O)(=O)N3CCc4cc(C(=O)NO)ccc4C3)cc2)cc1 [Compound 43, N-hydroxy-2-[(4′-methoxybiphenyl-4-yl)sulfonyl]-1,2,3,4-tetrahydroisoquinoline-6-carboxamide] |
| 50 to 100 | CC(C)(C)c1ccc(S(=O)(=O)N2CCc3cc(C(=O)NO)ccc3C2)cc1 [Compound 44, 2-[(4-tert-butylphenyl)sulfonyl]-N-hydroxy-1,2,3,4-tetrahydroisoquinoline-6-carboxamide] |
| 50 to 100 | Cc1ccc(S(=O)(=O)N2CCc3cc(C(=O)NO)ccc3C2)cc1 [Compound 45, N-hydroxy-2-[(4-methylphenyl)sulfonyl]-1,2,3,4-tetrahydroisoquinoline-6-carboxamide] |
| < 50 | O=C(NO)c1ccc2c(c1)CCN(S(=O)(=O)c1ccc3ccccc3c1)C2 [Compound 47, N-hydroxy-2-(2-naphthylsulfonyl)-1,2,3,4-tetrahydroisoquinoline-6-carboxamide] |
| 50 to 100 | O=C(NO)c1ccc2c(c1)CCN(S(=O)(=O)c1cccc(-c3ccc(F)cc3)c1)C2 [Compound 48, 2-[(4′-fluorobiphenyl-3-yl)sulfonyl]-N-hydroxy-1,2,3,4-tetrahydroisoquinoline-6-carboxamide] |
| < 50 | COc1ccc(S(=O)(=O)N2CCc3cc(C(=O)NO)ccc3C2)cc1 [Compound 49, N-hydroxy-2-[(4-methoxyphenyl)sulfonyl]-1,2,3,4-tetrahydroisoquinoline-6-carboxamide] |
| 100 to 500 | O=C(NO)c1ccc2c(c1)CCN(S(=O)(=O)c1ccc(F)cc1)C2 [Compound 50, 2-[(4-fluorophenyl)sulfonyl]-N-hydroxy-1,2,3,4-tetrahydroisoquinoline-6-carboxamide] |
| 100 to 500 | Cc1nc(S(=O)(=O)N2CCc3cc(C(=O)NO)ccc3C2)cn1C [Compound 51, 2-[(1,2-dimethyl-1H-imidazol-4-yl)sulfonyl]-N-hydroxy-1,2,3,4-tetrahydroisoquinoline-6-carboxamide] |

| IC50 [nM] | SMILES |
| --- | --- |
| 50 to 100 | O=C(NO)c1ccc2c(c1)CCN(S(=O)(=O)c1ccc(C(F)(F)F)cc1)C2 [Compound 52, N-hydroxy-2-{[4-(trifluoromethyl)phenyl]sulfonyl}-1,2,3,4-tetrahydroisoquinoline-6-carboxamide] |
| 100 to 500 | Cc1noc(C)c1S(=O)(=O)N1CCc2cc(C(=O)NO)ccc2C1 [Compound 53, 2-[(3,5-dimethylisoxazol-4-yl)sulfonyl]-N-hydroxy-1,2,3,4-tetrahydroisoquinoline-6-carboxamide] |
| 50 to 100 | Cc1n[nH]c(C)c1S(=O)(=O)N1CCc2cc(C(=O)NO)ccc2C1 [Compound 54, 2-[(3,5-dimethyl-1H-pyrazol-4-yl)sulfonyl]-N-hydroxy-1,2,3,4-tetrahydroisoquinoline-6-carboxamide] |
| 100 to 500 | O=C(NO)c1ccc2c(c1)CCN(S(=O)(=O)c1ccc(Oc3ccncc3)cc1)C2 [Compound 55, N-hydroxy-2-{[4-(pyridin-4-yloxy)phenyl]sulfonyl}-1,2,3,4-tetrahydroisoquinoline-6-carboxamide] |
| 100 to 500 | O=C(NO)c1ccc2c(c1)CCN(S(=O)(=O)CC(c1ccccc1)c1ccccc1)C2 [Compound 56, 2-[(2,2-diphenylethyl)sulfonyl]-N-hydroxy-1,2,3,4-tetrahydroisoquinoline-6-carboxamide] |
| 50 to 100 | O=C(NO)c1ccc2c(c1)CCN(Cc1ccccc1)C2 [Compound 57, 2-benzyl-N-hydroxy-1,2,3,4-tetrahydroisoquinoline-6-carboxamide] |
| 50 to 100 | O=C(NO)c1ccc2c(c1)CCN(CCc1cccc3ccccc13)C2 [Compound 58, N-hydroxy-2-[2-(1-naphthyl)ethyl]-1,2,3,4-tetrahydroisoquinoline-6-carboxamide] |
| 100 to 500 | O=C(NO)c1ccc2c(c1)CCN(Cc1ccc(-n3cncn3)cc1)C2 [Compound 59, N-hydroxy-2-[4-(1H-1,2,4-triazol-1-yl)benzyl]-1,2,3,4-tetrahydroisoquinoline-6-carboxamide] |
| 50 to 100 | O=C(NO)c1ccc2c(c1)CCN(Cc1ccc3ccccc3n1)C2 [Compound 60, N-hydroxy-2-(quinolin-2-ylmethyl)-1,2,3,4-tetrahydroisoquinoline-6-carboxamide] |
| 100 to 500 | O=C(NO)c1ccc2c(c1)CCN(Cc1ccc(OC(F)(F)F)cc1)C2 [Compound 61, N-hydroxy-2-[4-(trifluoromethoxy)benzyl]-1,2,3,4-tetrahydroisoquinoline-6-carboxamide] |
| 100 to 500 | O=C(NO)c1ccc2c(c1)CCN(CCCc1ccccc1)C2 [Compound 62, N-hydroxy-2-(3-phenylpropyl)-1,2,3,4-tetrahydroisoquinoline-6-carboxamide] |
| 100 to 500 | O=C(NO)c1ccc2c(c1)CCN(CCOc1ccccc1)C2 [Compound 63, N-hydroxy-2-(2-phenoxyethyl)-1,2,3,4-tetrahydroisoquinoline-6-carboxamide] |
| 100 to 500 | O=C(NO)c1ccc2c(c1)CCN(C/C=C/c1ccccc1)C2 [Compound 64, N-hydroxy-2-[(2E)-3-phenylprop-2-en-1-yl]-1,2,3,4-tetrahydroisoquinoline-6-carboxamide] |
| 100 to 500 | O=C(NO)c1ccc2c(c1)CCN(Cc1ccc3nonc3c1)C2 [Compound 65, 2-(2,1,3-benzoxadiazol-5-ylmethyl)-N-hydroxy-1,2,3,4-tetrahydroisoquinoline-6-carboxamide] |
| 100 to 500 | O=C(NO)c1ccc2c(c1)CCN(Cc1ccc(C(F)(F)F)cc1)C2 [Compound 66, N-hydroxy-2-[4-(trifluoromethyl)benzyl]-1,2,3,4-tetrahydroisoquinoline-6-carboxamide] |
| 100 to 500 | O=C(NO)c1ccc2c(c1)CCN(CCCOc1ccccc1)C2 [Compound 67, N-hydroxy-2-(3-phenoxypropyl)-1,2,3,4-tetrahydroisoquinoline-6-carboxamide] |
